Results taken from the NIST ThermoML archive (doi:10.1016/j.jct.2018.11.014).

Assay: molar heat capacity at constant pressure
Conditions: 101.33 kPa, Crystal, Vacuum adiabatic calorimetry

O=C(CO)[C@@H](O)[C@@H](O)[C@H](O)CO [D-(-)-tagatose]
Conditions	molar heat capacity at constant pressure [J/K/mol]
110.79 K	86.05
112.05 K	87.01
113.37 K	88.06
114.74 K	89.11
116.09 K	90.16
117.44 K	91.23
118.77 K	92.2
120 K	93.18
120.13 K	93.3
121.52 K	94.39
122.9 K	95.4
124.27 K	96.48
125.63 K	97.47
127.06 K	98.59
128.55 K	99.75
130 K	100.79
130.03 K	100.83
131.5 K	101.97
132.96 K	103.07
134.45 K	104.19
135.97 K	105.29
137.47 K	106.45
138.97 K	107.56
140 K	108.3
140.45 K	108.68
141.96 K	109.8
143.5 K	110.93
145.03 K	112.09
146.55 K	113.1
148.1 K	114.27
149.72 K	115.49
150 K	115.72
151.43 K	116.75
153.17 K	118.02
154.9 K	119.31
156.62 K	120.56
158.37 K	121.84
160 K	123.1
160.14 K	123.23
161.94 K	124.54
163.76 K	125.92
165.57 K	127.19
167.41 K	128.53
169.28 K	129.9
170 K	130.45
171.14 K	131.27
172.99 K	132.6
174.82 K	134.01
176.68 K	135.37
178.57 K	136.72
180 K	137.8
180.49 K	138.21
182.43 K	139.62
184.37 K	141.02
186.33 K	142.53
188.32 K	143.96
190 K	145.19
190.29 K	145.43
192.26 K	146.89
194.22 K	148.2
196.2 K	149.78
198.21 K	151.32
200 K	152.62
200.21 K	152.77
202.19 K	154.24
204.24 K	155.8
206.37 K	157.27
208.53 K	159.03
210 K	160.09
210.68 K	160.61
212.82 K	162.18
214.94 K	163.84
217.1 K	165.39
219.28 K	167.07
220 K	167.61
221.45 K	168.71
223.6 K	170.37
225.82 K	171.99
228.13 K	173.74
230 K	175.16
230.48 K	175.53
232.81 K	177.33
235.13 K	179.15
237.48 K	180.87
239.92 K	182.64
240 K	182.74
242.39 K	184.45
244.84 K	186.37
247.28 K	188.22
249.7 K	190.03
250 K	190.36
252.15 K	192.06
254.63 K	194.03
257.1 K	195.94
259.55 K	197.81
260 K	198.11
261.98 K	199.73
264.45 K	201.55
266.94 K	203.51
269.42 K	205.41
270 K	206.1
271.88 K	207.63
274.33 K	209.55
276.81 K	211.93
279.31 K	213.91
280 K	214.24
281.79 K	215.77
284.26 K	217.69
286.73 K	219.65
289.21 K	221.51
290 K	222.17
291.73 K	223.31
294.22 K	225.32
296.71 K	227.47
298.15 K	228.55
299.18 K	229.22
300 K	229.99
301.76 K	231.28
304.46 K	233.53
307.14 K	235.53
309.81 K	237.67
310 K	237.81
312.46 K	239.92
315.14 K	241.99
317.84 K	244.2
320 K	245.73
320.53 K	246.19
323.2 K	248.11
325.86 K	250.28
328.54 K	252.68
330 K	253.86
331.25 K	254.96
